Data reported in patent US10940139B2, “Compounds that interact with the Ras superfamily for the treatment of cancers, inflammatory diseases, rasopathies, and fibrotic disease” (Shy Therapeutics LLC, priority 2017, dated 2021).

Experiments:
Assay in all cases: Ras GTP binding domain inhibition assay (labeled GTP)
KRas wild type = KRas wild type (Homo sapiens (Human), UniProt P01116); conditions: 20 μM compound; KRas wild type; read-out: % Inhibition at 20 μM of K-Ras mutant and wild-type protein, KRas wild type
Chain of KRas wild type (P01116-2 other isoform, or with tags, fused parts or gaps): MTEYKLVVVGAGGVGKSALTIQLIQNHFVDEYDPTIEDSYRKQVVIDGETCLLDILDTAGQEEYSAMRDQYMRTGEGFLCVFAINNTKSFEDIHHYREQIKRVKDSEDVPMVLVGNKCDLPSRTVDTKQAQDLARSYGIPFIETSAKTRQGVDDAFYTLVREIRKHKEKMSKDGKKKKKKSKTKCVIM
Method in brief: (§1)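 Fluorescence read-out of Cy3-/Cy5-GTP remaining bound to nickel-immobilized His-KRas after washes. Protein was coated overnight at 4° C, then exposed to compound for 3 h at room temperature before a 45 min labeled-GTP incubation.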

KRas G12C mutant = KRas G12C mutant (Homo sapiens (Human), UniProt P01116, G12C); conditions: 20 μM compound; KRas G12C; read-out: % Inhibition at 20 μM of K-Ras mutant and wild-type protein, KRas G12C
Chain of KRas G12C mutant (P01116-2 other isoform, or with tags, fused parts or gaps G12C): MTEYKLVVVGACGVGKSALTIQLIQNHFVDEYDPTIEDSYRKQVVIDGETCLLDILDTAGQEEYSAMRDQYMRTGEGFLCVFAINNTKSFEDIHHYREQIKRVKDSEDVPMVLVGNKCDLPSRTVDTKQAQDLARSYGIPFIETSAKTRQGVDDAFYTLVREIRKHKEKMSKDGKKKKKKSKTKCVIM
Method in brief: as §1

KRas G12D mutant protein = KRas G12D mutant protein (Homo sapiens (Human), UniProt P01116, G12D); conditions: 20 μM compound; KRas G12D; read-out: % Inhibition at 20 μM of K-Ras mutant and wild-type protein, KRas G12D
Chain of KRas G12D mutant protein (P01116-2 other isoform, or with tags, fused parts or gaps G12D): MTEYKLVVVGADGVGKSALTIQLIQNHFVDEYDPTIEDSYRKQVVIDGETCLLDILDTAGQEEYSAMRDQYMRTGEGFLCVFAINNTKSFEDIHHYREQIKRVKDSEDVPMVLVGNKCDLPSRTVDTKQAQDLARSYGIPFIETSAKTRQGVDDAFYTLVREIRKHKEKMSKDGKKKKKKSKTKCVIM

[1] = target: KRas G12C/Q61H double mutant (Homo sapiens (Human), UniProt P01116, G12C/Q61H); conditions: 20 μM compound; KRas G12C/Q61H double mutant; read-out: % Inhibition at 20 μM of K-Ras mutant and wild-type protein, KRas G12C Q61H
Chain of KRas G12C/Q61H double mutant (P01116-2 other isoform, or with tags, fused parts or gaps G12C/Q61H): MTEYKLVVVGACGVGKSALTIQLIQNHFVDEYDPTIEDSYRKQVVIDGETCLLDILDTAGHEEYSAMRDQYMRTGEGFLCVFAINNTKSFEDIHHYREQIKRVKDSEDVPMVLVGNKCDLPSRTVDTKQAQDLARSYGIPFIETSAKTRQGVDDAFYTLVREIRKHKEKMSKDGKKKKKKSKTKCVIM
Method in brief: as §1

[2] = target: KRas G12D/Q61H double mutant (Homo sapiens (Human), UniProt P01116, G12D/Q61H); conditions: 20 μM compound; KRas G12D/Q61H double mutant; read-out: % Inhibition at 20 μM of K-Ras mutant and wild-type protein, KRas G12D Q61H
Chain of KRas G12D/Q61H double mutant (P01116-2 other isoform, or with tags, fused parts or gaps G12D/Q61H): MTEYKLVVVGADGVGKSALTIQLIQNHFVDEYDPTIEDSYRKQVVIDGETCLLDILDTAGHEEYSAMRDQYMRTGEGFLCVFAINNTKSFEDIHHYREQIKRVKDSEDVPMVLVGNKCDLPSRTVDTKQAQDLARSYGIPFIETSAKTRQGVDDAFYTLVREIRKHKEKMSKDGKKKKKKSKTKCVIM
Method in brief: as §1

KRas Q61H mutant = KRas Q61H mutant (Homo sapiens (Human), UniProt P01116, Q61H); conditions: 20 μM compound; KRas Q61H; read-out: % Inhibition at 20 μM of K-Ras mutant and wild-type protein, KRas Q61H
Chain of KRas Q61H mutant (P01116-2 other isoform, or with tags, fused parts or gaps Q61H): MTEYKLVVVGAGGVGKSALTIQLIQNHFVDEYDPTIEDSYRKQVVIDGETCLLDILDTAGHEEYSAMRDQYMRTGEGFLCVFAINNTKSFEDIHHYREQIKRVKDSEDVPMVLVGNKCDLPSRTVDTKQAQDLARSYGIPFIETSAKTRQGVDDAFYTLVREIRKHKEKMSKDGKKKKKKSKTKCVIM
Method in brief: as §1

Structure (SMILES)	inhibition at 20 µM (KRas wild type)	inhibition at 20 µM (KRas G12C mutant)	inhibition at 20 µM (KRas G12D mutant protein)	inhibition at 20 µM [1]	inhibition at 20 µM [2]	inhibition at 20 µM (KRas Q61H mutant)
Cc1ccccc1-c1c(C)sc2c(O)nc(-c3nccn3C)nc12	25 to 50%	1 to 25%	25 to 50%	–	–	–
Nc1nc(O)c2sc(-c3cccc(C(=O)NC4CCNC4=O)c3)cc2n1 (stereo not drawn) [drawing 3542]	–	–	–	1 to 25%	1 to 25%	0%
Nc1nc(O)c2sc(-c3cccc(C(=O)N4CCC(O)C4)c3)cc2n1 (stereo not drawn) [drawing 3543]	–	–	–	1 to 25%	1 to 25%	1 to 25%
NC(=O)C1CCCN1C(=O)c1cccc(-c2cc3nc(N)nc(O)c3s2)c1 (stereo not drawn) [drawing 3544]	–	–	–	1 to 25%	0%	1 to 25%
Nc1nc(O)c2sc(-c3cccc(C(=O)NCc4ncc[nH]4)c3)cc2n1 [drawing 3545]	–	–	–	1 to 25%	0%	0%
Nc1nc(O)c2sc(-c3cccc(C(=O)NCc4cccc(O)n4)c3)cc2n1 [drawing 3546]	–	–	–	1 to 25%	0%	0%
COC(=O)c1nc(-c2ccccn2)nc(O)c1O [drawing 3547]	–	–	–	76 to 100%	51 to 75%	51 to 75%
Oc1nc(-c2ccccn2)nc2c(-c3ccccc3)c(-c3ccncc3)sc12 [drawing 3548]	–	–	–	0%	0%	51 to 75%
Cn1cnc(-c2nc(O)c3sc(-c4ccncc4)c(-c4ccccc4)c3n2)c1 [drawing 3549]	–	–	–	1 to 25%	0%	1 to 25%
COCC(C)Nc1nc(-c2ccccn2)nc(C(=O)NCCCc2c[nH]cn2)c1Oc1ccccc1 (stereo not drawn) [drawing 3550]	–	–	–	1 to 25%	1 to 25%	1 to 25%
Nc1nc(-c2ccccn2)nc(C(=O)NCCc2ccncc2)c1Oc1ccccc1 [drawing 3551]	–	–	–	1 to 25%	25 to 50%	25 to 50%
COc1nc(-c2ccccn2)nc(Oc2cccc(C(F)(F)F)c2)c1OC [drawing 3552]	–	–	–	0%	1 to 25%	0%
Oc1nc(-c2ccccn2)nc2c(Br)c(-c3ccccc3)sc12 [drawing 3553]	–	–	–	1 to 25%	0%	1 to 25%
CC(C)(C)c1sc2c(O)nc(-c3ccccn3)nc2c1Br [drawing 3554]	–	–	–	25 to 50%	25 to 50%	51 to 75%
Cc1ccc(-c2cc3nc(-c4ccccn4)nc(O)c3s2)cc1 [drawing 3555]	–	–	–	1 to 25%	0%	0%
Oc1nc(-c2ccccn2)nc2cc(-c3ccccc3Cl)sc12 [drawing 3556]	–	–	–	25 to 50%	1 to 25%	51 to 75%
Oc1nc(-c2ccccn2)nc2cc(-c3ccc(-c4ccccc4)cc3)sc12 [drawing 3559]	–	–	–	1 to 25%	1 to 25%	1 to 25%
Cc1ccc(-c2csc3c(O)nc(-c4ccccn4)nc23)cc1 [drawing 3560]	–	–	–	1 to 25%	1 to 25%	1 to 25%
COc1ccc(-c2cc3nc(-c4ccccn4)nc(O)c3s2)cc1 [drawing 3563]	–	–	–	1 to 25%	1 to 25%	1 to 25%
Oc1nc(-c2ccccn2)nc2cc(-c3cccc(Br)c3)sc12 [drawing 3564]	–	–	–	1 to 25%	25 to 50%	25 to 50%
COc1nc(-c2ccccn2)nc(Oc2cccc(C(F)(F)F)c2)c1O [drawing 3565]	1 to 25%	25 to 50%	51 to 75%	–	–	–
COCCN(C)c1nc(-c2nccn2C)nc2sc(-c3ccccc3)c(-c3ccccc3)c12 [drawing 3566]	51 to 75%	25 to 50%	51 to 75%	–	–	–
CC(C)OCCNc1nc(-c2nccn2C)nc2sc(-c3ccccc3)c(-c3ccccc3)c12 [drawing 3567]	51 to 75%	51 to 75%	51 to 75%	–	–	–
Cn1ccnc1-c1nc(NCCOC(F)(F)F)c2c(-c3ccccc3)c(-c3ccccc3)sc2n1 [drawing 3568]	25 to 50%	1 to 25%	25 to 50%	–	–	–

Structure (SMILES)	inhibition at 20 µM (KRas wild type)	inhibition at 20 µM (KRas G12C mutant)	inhibition at 20 µM (KRas G12D mutant protein)	inhibition at 20 µM [1]	inhibition at 20 µM [2]	inhibition at 20 µM (KRas Q61H mutant)
CC(O)CNc1nc(-c2nccn2C)nc2sc(-c3ccccc3)c(-c3ccccc3)c12 (stereo not drawn) [drawing 3569]	1 to 25%	1 to 25%	1 to 25%	–	–	–
COCCCNc1nc(-c2nccn2C)nc2sc(-c3ccccc3)c(-c3ccccc3)c12 [drawing 3570]	51 to 75%	51 to 75%	51 to 75%	–	–	–
COC1CCN(c2nc(-c3nccn3C)nc3sc(-c4ccccc4)c(-c4ccccc4)c23)C1 (stereo not drawn) [drawing 3571]	25 to 50%	1 to 25%	51 to 75%	–	–	–
CCOCCOc1nc(-c2nccn2C)nc2sc(-c3ccccc3)c(-c3ccccc3)c12 [drawing 3572]	25 to 50%	0%	1 to 25%	–	–	–
CCN(CC)CCOc1nc(-c2nccn2C)nc2sc(-c3ccccc3)c(-c3ccccc3)c12 [drawing 3573]	51 to 75%	25 to 50%	25 to 50%	–	–	–
COCCNc1nc(-c2ccncn2)nc2sc(-c3ccccc3)c(-c3ccccc3)c12 [drawing 3574]	1 to 25%	1 to 25%	0%	–	–	–
CCOCCNc1nc(-c2nccn2C)nc2sc(-c3ccccc3)c(-c3ccccc3)c12 [drawing 3575]	51 to 75%	51 to 75%	51 to 75%	–	–	–
Cn1ccnc1-c1nc(NCCOC2CC2)c2c(-c3ccccc3)c(-c3ccccc3)sc2n1 [drawing 3576]	25 to 50%	25 to 50%	1 to 25%	–	–	–
COCC(C)Nc1nc(-c2nccn2C)nc2sc(-c3ccccc3)c(-c3ccccc3)c12 (stereo not drawn) [drawing 3577]	1 to 25%	1 to 25%	1 to 25%	–	–	–
CC(CO)Nc1nc(-c2nccn2C)nc2sc(-c3ccccc3)c(-c3ccccc3)c12 (stereo not drawn) [drawing 3578]	0%	25 to 50%	1 to 25%	–	–	–
Cn1ccnc1-c1nc(NCCCO)c2c(-c3ccccc3)c(-c3ccccc3)sc2n1 [drawing 3579]	25 to 50%	25 to 50%	51 to 75%	–	–	–
COCCNc1nc(-c2nccn2C)nc2sc(-c3ccccc3)c(-c3ccccc3Cl)c12 [drawing 3580]	1 to 25%	25 to 50%	25 to 50%	–	–	–
COCCNc1nc(-c2nccn2C)nc2sc(-c3ccccc3Cl)c(-c3ccccc3)c12 [drawing 3581]	1 to 25%	1 to 25%	1 to 25%	–	–	–
COCCNc1nc(-c2nccn2C)nc2sc(-c3ccncc3)c(-c3ccccc3)c12 [drawing 3582]	76 to 100%	51 to 75%	51 to 75%	–	–	–
COCCNc1nc(-c2cn(C)cn2)nc2sc(-c3ccccc3)c(-c3ccccc3)c12 [drawing 3583]	51 to 75%	25 to 50%	25 to 50%	–	–	–
COCCNc1nc(-c2nccn2C)nc2sc(C)c(-c3ccccc3)c12 [drawing 3584]	51 to 75%	51 to 75%	51 to 75%	–	–	–
COCCNc1nc(-c2cn(C)cn2)nc2sc(C)c(-c3ccccc3)c12 [drawing 3585]	51 to 75%	25 to 50%	25 to 50%	–	–	–
COCCNc1nc(-c2nccn2C)nc2sc(-c3cccc(OC)c3)c(-c3ccccc3)c12 [drawing 3586]	25 to 50%	1 to 25%	25 to 50%	–	–	–
CC(C)COc1ccc(-c2c(-c3ccccc3)sc3c(O)nc(-c4nccn4C)nc23)cn1 [drawing 3587]	51 to 75%	25 to 50%	51 to 75%	–	–	–
Cn1ccnc1-c1nc(O)c2sc(-c3ccccc3)c(-c3ccccc3)c2n1 [drawing 3588]	1 to 25%	0%	0%	–	–	–
COCCNc1nc(-c2nccn2C)nc2sc(-c3ccccc3)c(-c3ccc(OC)cc3)c12 [drawing 3589]	25 to 50%	25 to 50%	25 to 50%	–	–	–
COCCNc1nc(-c2nccn2C)nc2sc(C3CCOCC3)c(-c3ccccc3)c12 [drawing 3590]	51 to 75%	25 to 50%	51 to 75%	–	–	–
COCCNc1nc(-c2cccc(N)n2)nc2sc(-c3ccccc3)c(-c3ccccc3)c12 [drawing 3591]	0%	1 to 25%	0%	–	–	–
